Test results taken from patent publication US20110162116A1, “Method For Growing Plants” (priority 2008, published 2011).

Test system: Cotton
Test: Total dark respiration and SHAM-sensitive AOX by phase shift fluorescence measurement, cotton leaf sections
Assay type: in vivo, Gossypium spp.
Description: Ozone control. Ozone generators (model OP-35-3P, Grupo Interozone, Brazil) were coupled to ozone monitors (model 202, 2B Technologies, Inc. USA; dynamic range of 1.5 ppbv to 100 ppmv of ozone; precision 1.5 ppbv or 2% of the reading) using a ozone monitor—generator interface (Engineering dep. Crops Advance Brazil). […] This was used as the upper limit for phytotron number one. Phytotron number two was set at 30 ppbv average ozone. Phytotron number three was set at 60 ppbv average ozone. Ozone levels of phytotron number two and three were permanently measured at 10 second intervals and averaged per minute. Each ozone monitor fed averaged values over an analog output to an ozone monitor—ozone generator interface. Hysteresis was set at +/−5 ppbv. Ozone levels were monitored close to the inlet of the two internal circulation ventilators. The ozone generators were adapted to accept an external digital signal from the interface.
Respiration of plant material was tested as follows: Partial oxygen pressure drops due to oxygen consumption as result of dark respiration were measured using phase shift fluorescence measurement. For this, a NeoFox™ Phase Measurement System was used (Fluorometer Bench version using a QBIF600-VIS-NIR laboratory-grade bifurcated optical fiber with FOXY-R-8 cm overcoated fluorescence oxygen needle sensor, Ocean Optics Inc. USA).
Fluorescence phase shift was expressed as Tau in microseconds (μs) and has an inverse and linear relation with the partial oxygen pressure.
Salicylhydroxamic acid (SHAM) (99%, Sigma-Aldrich Brasil Ltda. São Paulo, Brazil) was used as an AOX inhibitor. The soluble sodium salicylhydroxamate salt was prepared by titrating SHAM with 0.1 M sodium hydroxide until neural pH. A stock solution ([…]) was prepared containing 300 ml/L ethanol from initial dissolving SHAM (same abbreviation is used for the salicylhydroxamate salt). From the stock solution a 20 mmol/L salicylhydroxamate final test solution was prepared by taking 12.3 ml stock solution and completing till 100 ml with a phosphate buffer solution (pH 7). The final SHAM test solution thus contained 3.7% residual ethanol. For proper control, the comparative test solution was also provided with 3.7 ml of ethanol per 100 ml of phosphate buffer solution (pH 7). To both solutions two drops of wetting agent (Silwet L-77 AG, GE Silicones Inc. USA) were added per 25 ml of test solution.
Plant material collected was always the first fully grown leaf counting from the apical point downwards or outwards (e.g. for monocotyls). […] Per test, four leafs from four different plants were sampled. Cotton leafs were cut in half along the mid nerve. Using a clipper, 16 leaf sections of equal surface area of 400.9 mm2 each were cut, one from each base half and one from each top half part giving 4 sections per leaf and 16 sections per test. The leaf sections were distributed equally over two sub samples, one with and one without salicylhydroxamate. Using a chirurgical blade, all sections were given 7 parallel cuts (through and through) at approximately 2.5 mm apart over almost the full length of the section to guarantee lateral infiltration of the test solutions and gas exchange.
Within 10 minutes of plant sampling the sections were cut, initial subsample weight was registered using a high precision laboratory scale and the subsamples were placed in their solutions with and without salicylhydroxamate for 60 minutes in the dark, to guarantee dark adaptation.
Each sample contained 4 leaves, 4 sections per leaf providing 16 sections, 8 per subsample. In 1 subsample of 8 sections AOX was inhibited, the other subsample served as control. Thereafter each subsample material was tissue dried and stacked using filter paper sections cut with the same clipper to separate individual leaf sections. Each subsample consisted of 9 filter sections and 8 leaf sections. […]

[1] = plants grown in 0 ppvb O3, transferred to 60 ppvb O3 and transferred back to 0 ppvb O3
[2] = plants grown in 0 ppvb O3 and transferred to 30 ppvb O3
[3] = plants grown in 0 ppvb O3 and transferred to 60 ppvb O3
[4] = plants grown in 60 ppvb O3 and transferred to 0 ppvb O3

Question: Which “time for AOX respiration rate to fully return to base level when the oxidative stress is reduced” value (cotton, after exposure to higher ozone levels than in ontogenic phase) does the source give for `O=[O+][O-]` [ozone] here?
Answer: ≤ 3 days

Question: And the “AOX respiration after return to the 0 ppbv ozone ambient (in words)” value (ontogenic phase in 0 ppbv, time in 60 ppbv ozone ambient, returned to 0 ppbv)?
Answer: returned fully to its initial level

Question: What about the AOX component [1] of the same molecule?
Answer: 2.95 arb units

Question: What about the “TDR excl AOX dTau/t without SHAM” value [1] of the same molecule?
Answer: 8.87E−06 μs/s

Question: And the “TDR incl AOX dTau/t with SHAM” value [1]?
Answer: 1.18E−05 μs/s

Question: What about the AOX component [2] of the same molecule?
Answer: 3.26 arb units

Question: What about the “TDR excl AOX dTau/t without SHAM” value [2] of the same molecule?
Answer: 7.51E−06 μs/s

Question: What about the “TDR incl AOX dTau/t with SHAM” value [2] of the same molecule?
Answer: 1.08E−05 μs/s

Question: And the AOX component [3]?
Answer: 3.77 arb units

Question: And the “TDR excl AOX dTau/t without SHAM” value [3]?
Answer: 5.75E−06 μs/s

Question: And the “TDR incl AOX dTau/t with SHAM” value [3]?
Answer: 9.52E−06 μs/s

Question: And the AOX component (plants grown in 30 ppvb O3)?
Answer: 2.97 arb units

Question: And the “TDR excl AOX dTau/t without SHAM” value (plants grown in 30 ppvb O3)?
Answer: 6.96E−06 μs/s

Question: And the “TDR incl AOX dTau/t with SHAM” value (plants grown in 30 ppvb O3)?
Answer: 9.93E−06 μs/s

Question: And the AOX component (plants grown in 60 ppvb O3)?
Answer: 3.33 arb units

Question: What about the “TDR excl AOX dTau/t without SHAM” value (plants grown in 60 ppvb O3) of the same molecule?
Answer: 6.03E−06 μs/s

Question: And the “TDR incl AOX dTau/t with SHAM” value (plants grown in 60 ppvb O3)?
Answer: 9.36E−06 μs/s

Question: And the AOX component [4]?
Answer: 3.97 arb units

Question: And the “TDR excl AOX dTau/t without SHAM” value [4]?
Answer: 7.13E−06 μs/s

Question: What about the “TDR incl AOX dTau/t with SHAM” value [4] of the same molecule?
Answer: 1.11E−05 μs/s

Question: And the “AOX respiration during stay in the zero ozone level ambient (in words)” value (plants grown up in 60 ppbv ozone, placed in zero ozone ambient)?
Answer: did not lower their AOX respiration
